Assay results reported in patent publication US9884130B2, “Compositions for delivery of oral comfort sensations” (The Procter & Gamble Company, priority 2013, dated 2018).
Counter-ions that a name gives are not always drawn. Like-named read-outs stand apart in the source and are kept apart here. Values belong to the compound of their own block, whether it stands above or below them.

Target: T1, mouse TREK-1 (mTREK-1t) (Mus musculus, UniProt P97438)
T1 construct: (mTREK-1t) by Capital Biosciences (Rockville, Md.)
T1 sequence (P97438 with tags, fused parts or gaps limits assumed): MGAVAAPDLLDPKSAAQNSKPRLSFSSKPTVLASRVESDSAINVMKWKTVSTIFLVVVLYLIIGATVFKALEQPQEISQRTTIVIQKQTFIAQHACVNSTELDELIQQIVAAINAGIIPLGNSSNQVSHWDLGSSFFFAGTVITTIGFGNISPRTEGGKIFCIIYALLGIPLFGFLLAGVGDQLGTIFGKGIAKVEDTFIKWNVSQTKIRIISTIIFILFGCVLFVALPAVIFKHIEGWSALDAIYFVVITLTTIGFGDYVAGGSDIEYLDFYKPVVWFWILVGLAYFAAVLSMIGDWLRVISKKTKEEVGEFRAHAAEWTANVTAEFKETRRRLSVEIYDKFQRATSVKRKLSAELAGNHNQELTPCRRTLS
Assay: FLIPR membrane potential assay in HEK-293 cells stably transfected with mTREK-1t
Type: cell-based

[1] = HEK293, read-out: Fluorescence per Sample concentration (percent activity relative to potassium nitrate)
[2] = HEK293, sample concentration 50 μM, relative to 50 mM potassium nitrate, read-out: Fluorescence per Sample concentration (percent activity relative to potassium nitrate)
[3] = HEK293, sample concentration 100 μM, relative to 50 mM potassium nitrate, read-out: Fluorescence per Sample concentration (percent activity relative to potassium nitrate)
[4] = HEK293, sample concentration 200 μM, relative to 50 mM potassium nitrate, read-out: Fluorescence per Sample concentration (percent activity relative to potassium nitrate)
[5] = HEK293, Sample Conc. 0.0005%, read-out: Activity Level (percentage of activity relative to 100% with 50 mM potassium nitrate)
[6] = HEK293, Sample Conc. 0.0010%, read-out: Activity Level (percentage of activity relative to 100% with 50 mM potassium nitrate)
[7] = HEK293, Sample Conc. 0.0021%, read-out: Activity Level (percentage of activity relative to 100% with 50 mM potassium nitrate)
[8] = HEK293, Sample Conc. 0.0042%, read-out: Activity Level (percentage of activity relative to 100% with 50 mM potassium nitrate)
[9] = HEK293, Sample Conc. 0.0083%, read-out: Activity Level (percentage of activity relative to 100% with 50 mM potassium nitrate)
[10] = HEK293, Sample Conc. 0.0167%, read-out: Activity Level (percentage of activity relative to 100% with 50 mM potassium nitrate)
[11] = HEK293, Sample Conc. 0.0330%, read-out: Activity Level (percentage of activity relative to 100% with 50 mM potassium nitrate)
[12] = HEK293, read-out: Activity Level (percentage of activity relative to 100% with 50 mM potassium nitrate)

activation at 50 µM [1]: 5.19% | activation at 100 µM [1]: 10.5% | activation at 200 µM [1]: 29.1%
Structure (SMILES): CC=Cc1ccc(OC)c(OC)c1 [1,2-Dimethoxy 4-propenyl benzene]

activation at 50 µM [2]: 11.1% | activation at 100 µM [3]: 21.1% | activation at 200 µM [4]: 46.3% | activation at 400 µM (HEK293, sample concentration 400 μM, relative to 50 mM potassium nitrate, read-out: Fluorescence per Sample concentration (percent activity relative to potassium nitrate)): ≥ 50%
Structure (SMILES): CC(C)CC=C(C=O)C(C)C [2-Isopropyl-5-methyl-2-hexenal]

Structure (SMILES): Oc1ccccc1-c1ccccc1 [2-Phenylphenol]
activation at 50 µM [1]: 0.35% | activation at 100 µM [1]: 0.85% | activation at 200 µM [1]: 12.9% | activation at 400 µM [1]: ≥ 50%

activation at 50 µM [2]: 31% | activation at 100 µM [3]: 44.6% | activation at 200 µM [4]: 77.3%
Structure (SMILES): CCCCC(CC)CCC(=O)O (centres unmarked) [4-Ethyloctanoic Acid]

activation at 50 µM [2]: 16.5% | activation at 100 µM [3]: 27.1% | activation at 200 µM [4]: 52.1%
Structure (SMILES): CC(C)C=C(C=O)c1ccccc1 [4-Methyl-2-phenyl-2 Pentenal]

activation at 50 µM [2]: 24.8% | activation at 100 µM [3]: 38.5% | activation at 200 µM [4]: 79.9%
Structure (SMILES): CCCCCC(C)CCC(=O)O (centres unmarked) [4-Methylnonanoic acid]

activation at 0.0005 % [5]: 2.69% | activation at 0.001 % [6]: 0.48% | activation at 0.0021 % [7]: 3.06% | activation at 0.0042 % [8]: 2.5% | activation at 0.0083 % [9]: 5.89% | activation at 0.0167 % [10]: 14.1% | activation at 0.033 % [11]: 24%
Structure (SMILES): CCCCOC(=O)CC(CC(=O)OCCCC)(OC(C)=O)C(=O)OCCCC [Acetyl Tributyl Citrate]

Activity Level (percentage of activity relative to 100% with 50 mM potassium nitrate) (Sample Conc. 0.0005%): 5.92% | Activity Level (percentage of activity relative to 100% with 50 mM potassium nitrate) (Sample Conc. 0.0010%): 13.39% | Activity Level (percentage of activity relative to 100% with 50 mM potassium nitrate) (Sample Conc. 0.0021%): 20.49% | Activity Level (percentage of activity relative to 100% with 50 mM potassium nitrate) (Sample Conc. 0.0042%): 26.65% | Activity Level (percentage of activity relative to 100% with 50 mM potassium nitrate) (Sample Conc. 0.0083%): 43.09% | Activity Level (percentage of activity relative to 100% with 50 mM potassium nitrate) (Sample Conc. 0.0167%): 84.83% | Activity Level (percentage of activity relative to 100% with 50 mM potassium nitrate) (Sample Conc. 0.0330%): 109.75%
Structure (SMILES): CCCCC(CC)COP(=O)(O)OCC(CC)CCCC (centres unmarked) [Bis (2-ethyl hexyl) Phosphate]
activity on TREK-1 compared with potassium nitrate (0.033% Sample concentration vs 50 mM (0.505%) potassium nitrate): higher activity on TREK-1 than potassium nitrate

activation at 0.0005 % [5]: 1.31% | activation at 0.001 % [6]: 1.38% | activation at 0.0021 % [7]: 3.43% | activation at 0.0042 % [8]: 3.56% | activation at 0.0083 % [9]: 6.59% | activation at 0.0167 % [10]: 14.8% | activation at 0.033 % [11]: 30.4%
Structure (SMILES): CC(C)OC(=O)CCCCC(=O)OC(C)C [Diisopropyl Adipate]

Structure (SMILES): CCCCCCCCOC(=O)CCCCC(=O)OCCCCCCCC [Dioctyl Adipate]
activity on TREK-1 compared with potassium nitrate: higher activity on TREK-1 than potassium nitrate | activation at 0.0005 % [12]: 8.93% | activation at 0.001 % [12]: 13.7% | activation at 0.0021 % [12]: 18.1% | activation at 0.0042 % [12]: 22.9% | activation at 0.0083 % [12]: 38.9% | activation at 0.0167 % [12]: > 70% | activation at 0.033 % [12]: 132%
